This note sets out measurements from ChEMBL document CHEMBL3132769, “Fragment growing to retain or alter the selectivity of anchored kinase hinge-binding fragments” (Medchemcomm, 2014).

The term inhibition denotes the share of the control response that was lost under treatment.

For assay [1], the target named is Fibroblast growth factor receptor 2 (Homo sapiens) (UniProt P21802). As to the kind of experiment: Inhibition of human FGFR2 catalytic domain expressed in baculovirus assessed as substrate phosphorylation using fluorescence-labelled peptides as substrate at 0.2 uM after 90 mins by microfluidic peptide phosphorylation assay.
Sequence of Fibroblast growth factor receptor 2 (Homo sapiens) (P21802 22-821 limits assumed): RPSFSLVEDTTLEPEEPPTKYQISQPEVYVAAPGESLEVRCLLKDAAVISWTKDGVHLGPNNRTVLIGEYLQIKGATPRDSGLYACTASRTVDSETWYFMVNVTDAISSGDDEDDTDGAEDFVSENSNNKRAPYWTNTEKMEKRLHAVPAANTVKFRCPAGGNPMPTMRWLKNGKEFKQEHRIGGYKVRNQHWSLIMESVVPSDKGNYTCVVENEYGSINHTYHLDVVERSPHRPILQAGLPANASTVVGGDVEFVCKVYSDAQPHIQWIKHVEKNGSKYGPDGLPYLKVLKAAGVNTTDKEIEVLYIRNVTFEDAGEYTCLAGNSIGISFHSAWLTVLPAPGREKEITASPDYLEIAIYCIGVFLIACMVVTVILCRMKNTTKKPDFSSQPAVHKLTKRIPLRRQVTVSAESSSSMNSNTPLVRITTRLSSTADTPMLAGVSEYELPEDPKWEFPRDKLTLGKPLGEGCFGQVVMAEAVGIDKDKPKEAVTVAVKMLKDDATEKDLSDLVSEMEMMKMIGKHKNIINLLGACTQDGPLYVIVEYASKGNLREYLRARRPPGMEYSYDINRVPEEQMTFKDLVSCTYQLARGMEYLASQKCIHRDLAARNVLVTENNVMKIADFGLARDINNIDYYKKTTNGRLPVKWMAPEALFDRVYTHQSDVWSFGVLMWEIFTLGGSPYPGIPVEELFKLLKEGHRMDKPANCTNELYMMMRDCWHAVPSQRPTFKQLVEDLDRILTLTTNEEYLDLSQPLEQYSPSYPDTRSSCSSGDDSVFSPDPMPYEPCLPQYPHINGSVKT
Assay [2] addresses Rho-associated protein kinase 2 (Homo sapiens) (UniProt O75116). The experiment in a line: Inhibition of human ROCK2 catalytic domain expressed in baculovirus assessed as substrate phosphorylation using fluorescence-labelled peptides as substrate at 9 uM after 90 mins by microfluidic peptide phosphorylation assay.
For assay [3], the target named is Protein kinase C theta type (Homo sapiens) (UniProt Q04759). As to the kind of experiment: Inhibition of human truncated PKC theta expressed in baculovirus assessed as substrate phosphorylation using fluorescence-labelled peptides as substrate at 95 uM after 90 mins by microfluidic peptide phosphorylation assay.
Sequence of Protein kinase C theta type (Homo sapiens) (Q04759 whole entry, looked up, the tested form may be a part): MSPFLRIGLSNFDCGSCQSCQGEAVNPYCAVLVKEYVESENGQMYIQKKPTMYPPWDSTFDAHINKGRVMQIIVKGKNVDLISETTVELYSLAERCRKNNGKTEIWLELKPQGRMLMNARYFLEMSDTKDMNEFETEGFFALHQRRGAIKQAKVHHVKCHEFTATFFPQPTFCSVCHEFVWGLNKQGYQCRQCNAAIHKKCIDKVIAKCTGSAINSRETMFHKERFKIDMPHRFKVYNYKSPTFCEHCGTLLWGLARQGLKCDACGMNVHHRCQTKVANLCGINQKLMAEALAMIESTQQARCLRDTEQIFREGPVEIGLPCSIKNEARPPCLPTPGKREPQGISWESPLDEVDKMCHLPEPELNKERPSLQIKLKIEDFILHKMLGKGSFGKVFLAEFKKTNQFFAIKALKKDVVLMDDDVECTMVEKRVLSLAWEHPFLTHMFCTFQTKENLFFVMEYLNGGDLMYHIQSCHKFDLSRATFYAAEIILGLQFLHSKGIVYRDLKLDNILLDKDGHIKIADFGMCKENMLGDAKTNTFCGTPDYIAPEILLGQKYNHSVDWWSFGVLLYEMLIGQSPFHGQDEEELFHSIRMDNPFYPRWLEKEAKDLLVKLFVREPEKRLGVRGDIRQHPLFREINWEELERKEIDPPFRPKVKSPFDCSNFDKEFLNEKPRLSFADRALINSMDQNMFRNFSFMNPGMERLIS
Assay [4] addresses Tyrosine-protein kinase Fer (Homo sapiens) (UniProt P16591). As to the kind of experiment: Inhibition of human FER catalytic domain expressed in baculovirus assessed as substrate phosphorylation using fluorescence-labelled peptides as substrate at 8 uM after 90 mins by microfluidic peptide phosphorylation assay.
Assay [5] deals with MAP/microtubule affinity-regulating kinase 3 (Homo sapiens) (UniProt P27448). As to the kind of experiment: Inhibition of human full length c-TAK1 expressed in Escherichia coli cell assessed as substrate phosphorylation using fluorescence-labelled peptides as substrate at 8 uM after 90 mins by microfluidic peptide phosphorylation assay.
Sequence of MAP/microtubule affinity-regulating kinase 3 (Homo sapiens) (P27448 whole entry, looked up, the tested form may be a part): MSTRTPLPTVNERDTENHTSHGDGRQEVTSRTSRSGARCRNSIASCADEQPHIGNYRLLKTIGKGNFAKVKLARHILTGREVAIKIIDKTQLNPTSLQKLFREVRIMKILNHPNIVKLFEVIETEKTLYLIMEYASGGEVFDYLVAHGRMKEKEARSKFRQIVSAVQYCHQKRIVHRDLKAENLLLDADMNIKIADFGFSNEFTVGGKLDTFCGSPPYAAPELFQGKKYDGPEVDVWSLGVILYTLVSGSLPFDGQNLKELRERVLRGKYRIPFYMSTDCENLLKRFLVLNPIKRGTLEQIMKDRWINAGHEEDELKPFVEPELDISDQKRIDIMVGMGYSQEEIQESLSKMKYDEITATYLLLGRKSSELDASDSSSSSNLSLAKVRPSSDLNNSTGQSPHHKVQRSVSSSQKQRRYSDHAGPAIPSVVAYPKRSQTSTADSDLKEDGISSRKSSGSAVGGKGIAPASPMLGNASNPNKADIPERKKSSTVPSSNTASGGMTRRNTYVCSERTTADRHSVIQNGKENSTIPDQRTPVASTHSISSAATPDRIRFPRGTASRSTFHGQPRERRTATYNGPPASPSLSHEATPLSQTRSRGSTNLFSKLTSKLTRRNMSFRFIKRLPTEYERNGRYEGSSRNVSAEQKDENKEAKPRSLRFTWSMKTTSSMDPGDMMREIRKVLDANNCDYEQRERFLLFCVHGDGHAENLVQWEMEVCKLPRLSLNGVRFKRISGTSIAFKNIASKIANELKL
The species named for assay [6] is Homo sapiens. The experiment in a line: Inhibition of human P70S6K catalytic domain expressed in baculovirus assessed as substrate phosphorylation using fluorescence-labelled peptides as substrate at 70 uM after 90 mins by microfluidic peptide phosphorylation assay.
Assay [7] has as its target T1, Serine/threonine-protein kinase D1 (Homo sapiens) (UniProt Q15139).
T1 sequence (whole entry): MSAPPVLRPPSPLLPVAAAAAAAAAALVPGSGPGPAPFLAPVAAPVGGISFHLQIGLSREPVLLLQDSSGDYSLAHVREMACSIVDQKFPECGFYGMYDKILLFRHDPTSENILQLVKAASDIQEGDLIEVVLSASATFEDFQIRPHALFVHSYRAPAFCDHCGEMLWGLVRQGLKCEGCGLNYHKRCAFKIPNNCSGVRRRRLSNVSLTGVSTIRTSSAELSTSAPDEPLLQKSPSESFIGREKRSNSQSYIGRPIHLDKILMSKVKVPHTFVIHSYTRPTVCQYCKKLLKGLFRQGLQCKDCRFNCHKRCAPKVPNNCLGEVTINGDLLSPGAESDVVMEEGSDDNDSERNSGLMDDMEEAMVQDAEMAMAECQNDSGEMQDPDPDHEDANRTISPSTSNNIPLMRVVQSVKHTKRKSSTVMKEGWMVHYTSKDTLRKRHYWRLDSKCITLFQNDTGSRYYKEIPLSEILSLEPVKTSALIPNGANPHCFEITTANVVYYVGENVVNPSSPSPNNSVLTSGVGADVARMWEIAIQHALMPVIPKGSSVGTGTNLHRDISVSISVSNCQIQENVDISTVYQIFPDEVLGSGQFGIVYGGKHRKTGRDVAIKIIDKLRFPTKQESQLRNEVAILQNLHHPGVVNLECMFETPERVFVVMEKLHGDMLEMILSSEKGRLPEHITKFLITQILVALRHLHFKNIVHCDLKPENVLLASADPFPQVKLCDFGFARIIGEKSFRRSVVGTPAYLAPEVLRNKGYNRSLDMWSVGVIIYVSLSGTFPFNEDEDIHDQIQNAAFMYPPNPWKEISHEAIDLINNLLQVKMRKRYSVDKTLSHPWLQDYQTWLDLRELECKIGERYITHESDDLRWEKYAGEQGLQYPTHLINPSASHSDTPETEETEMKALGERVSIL
As to the kind of experiment: Inhibition of human full length PKD1 expressed in baculovirus assessed as substrate phosphorylation using fluorescence-labelled peptides as substrate at […] after 90 mins by microfluidic peptide phosphorylation assay.

Assay [8] addresses T2, Mitogen-activated protein kinase 12 (Homo sapiens) (UniProt P53778).
T2 sequence (whole entry): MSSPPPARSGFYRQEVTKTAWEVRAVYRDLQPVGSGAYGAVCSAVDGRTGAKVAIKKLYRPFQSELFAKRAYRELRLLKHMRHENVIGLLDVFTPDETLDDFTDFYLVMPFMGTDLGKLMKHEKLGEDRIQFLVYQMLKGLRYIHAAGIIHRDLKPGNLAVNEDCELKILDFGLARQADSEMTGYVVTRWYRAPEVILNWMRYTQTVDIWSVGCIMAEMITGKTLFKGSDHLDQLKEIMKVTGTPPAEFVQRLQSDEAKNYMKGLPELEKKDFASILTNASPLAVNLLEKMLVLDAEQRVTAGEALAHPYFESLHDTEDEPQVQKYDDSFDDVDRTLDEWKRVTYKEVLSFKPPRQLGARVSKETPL
As to the kind of experiment: Inhibition of human full length p38 gamma expressed in Escherichia coli cell assessed as substrate phosphorylation using fluorescence-labelled peptides as substrate at […] after 90 mins by microfluidic peptide phosphorylation assay.

Assay [9] deals with T3, Serine/threonine-protein kinase Sgk3 (Homo sapiens) (UniProt Q96BR1).
T3 sequence (whole entry): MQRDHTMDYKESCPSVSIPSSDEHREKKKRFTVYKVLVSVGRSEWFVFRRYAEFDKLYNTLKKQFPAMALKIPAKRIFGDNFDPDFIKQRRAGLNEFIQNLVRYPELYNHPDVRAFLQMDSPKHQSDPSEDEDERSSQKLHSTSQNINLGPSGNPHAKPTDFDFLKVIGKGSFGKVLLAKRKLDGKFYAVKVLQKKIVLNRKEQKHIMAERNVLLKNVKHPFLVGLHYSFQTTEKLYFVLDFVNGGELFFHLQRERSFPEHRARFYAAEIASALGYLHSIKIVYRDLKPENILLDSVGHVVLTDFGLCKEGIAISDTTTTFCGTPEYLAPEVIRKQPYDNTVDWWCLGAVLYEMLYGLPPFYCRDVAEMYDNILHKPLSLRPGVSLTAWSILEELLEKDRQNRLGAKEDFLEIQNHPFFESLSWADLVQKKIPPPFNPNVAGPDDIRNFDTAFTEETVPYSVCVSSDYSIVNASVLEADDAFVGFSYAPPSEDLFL
As to the kind of experiment: Inhibition of human full length SGK3 expressed in baculovirus assessed as substrate phosphorylation using fluorescence-labelled peptides as substrate at 1000 uM after 90 mins by microfluidic peptide phosphorylation assay.

Sequence of Rho-associated protein kinase 2 (Homo sapiens) (O75116 whole entry, looked up, the tested form may be a part): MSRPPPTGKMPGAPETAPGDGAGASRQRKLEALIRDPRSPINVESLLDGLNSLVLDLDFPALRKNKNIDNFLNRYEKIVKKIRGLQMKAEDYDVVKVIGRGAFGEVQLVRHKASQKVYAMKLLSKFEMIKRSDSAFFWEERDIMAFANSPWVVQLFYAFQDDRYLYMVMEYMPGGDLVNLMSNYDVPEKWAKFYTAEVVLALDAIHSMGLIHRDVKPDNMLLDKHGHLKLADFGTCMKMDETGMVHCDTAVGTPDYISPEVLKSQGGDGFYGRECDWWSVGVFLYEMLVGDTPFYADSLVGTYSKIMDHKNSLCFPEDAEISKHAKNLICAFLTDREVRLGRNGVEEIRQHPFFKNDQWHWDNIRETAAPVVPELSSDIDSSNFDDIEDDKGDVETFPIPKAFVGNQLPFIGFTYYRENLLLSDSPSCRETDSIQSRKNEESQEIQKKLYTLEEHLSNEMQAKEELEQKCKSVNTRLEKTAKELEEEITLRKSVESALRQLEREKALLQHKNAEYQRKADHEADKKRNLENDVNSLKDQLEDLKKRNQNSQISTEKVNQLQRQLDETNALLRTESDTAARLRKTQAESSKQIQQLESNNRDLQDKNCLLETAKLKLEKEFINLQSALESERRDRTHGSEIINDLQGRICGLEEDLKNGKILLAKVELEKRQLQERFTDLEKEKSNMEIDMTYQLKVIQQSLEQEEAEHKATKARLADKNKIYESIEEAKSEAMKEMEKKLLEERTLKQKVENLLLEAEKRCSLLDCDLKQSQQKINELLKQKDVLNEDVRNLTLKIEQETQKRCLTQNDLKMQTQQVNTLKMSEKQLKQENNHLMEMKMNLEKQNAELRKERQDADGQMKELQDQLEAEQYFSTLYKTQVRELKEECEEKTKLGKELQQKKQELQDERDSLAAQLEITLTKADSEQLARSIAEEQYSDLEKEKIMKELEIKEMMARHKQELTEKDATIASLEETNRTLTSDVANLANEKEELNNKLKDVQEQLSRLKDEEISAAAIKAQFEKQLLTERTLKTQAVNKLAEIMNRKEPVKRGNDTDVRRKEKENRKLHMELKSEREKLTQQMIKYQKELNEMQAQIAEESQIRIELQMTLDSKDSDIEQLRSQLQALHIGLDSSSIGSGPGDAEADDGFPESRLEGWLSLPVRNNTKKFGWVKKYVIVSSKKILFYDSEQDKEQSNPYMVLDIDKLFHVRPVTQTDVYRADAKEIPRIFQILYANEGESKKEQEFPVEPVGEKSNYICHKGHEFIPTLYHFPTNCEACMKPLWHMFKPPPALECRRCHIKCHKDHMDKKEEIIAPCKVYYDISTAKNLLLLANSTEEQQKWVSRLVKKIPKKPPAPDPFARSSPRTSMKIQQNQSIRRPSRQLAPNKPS
Sequence of Tyrosine-protein kinase Fer (Homo sapiens) (P16591 whole entry, looked up, the tested form may be a part): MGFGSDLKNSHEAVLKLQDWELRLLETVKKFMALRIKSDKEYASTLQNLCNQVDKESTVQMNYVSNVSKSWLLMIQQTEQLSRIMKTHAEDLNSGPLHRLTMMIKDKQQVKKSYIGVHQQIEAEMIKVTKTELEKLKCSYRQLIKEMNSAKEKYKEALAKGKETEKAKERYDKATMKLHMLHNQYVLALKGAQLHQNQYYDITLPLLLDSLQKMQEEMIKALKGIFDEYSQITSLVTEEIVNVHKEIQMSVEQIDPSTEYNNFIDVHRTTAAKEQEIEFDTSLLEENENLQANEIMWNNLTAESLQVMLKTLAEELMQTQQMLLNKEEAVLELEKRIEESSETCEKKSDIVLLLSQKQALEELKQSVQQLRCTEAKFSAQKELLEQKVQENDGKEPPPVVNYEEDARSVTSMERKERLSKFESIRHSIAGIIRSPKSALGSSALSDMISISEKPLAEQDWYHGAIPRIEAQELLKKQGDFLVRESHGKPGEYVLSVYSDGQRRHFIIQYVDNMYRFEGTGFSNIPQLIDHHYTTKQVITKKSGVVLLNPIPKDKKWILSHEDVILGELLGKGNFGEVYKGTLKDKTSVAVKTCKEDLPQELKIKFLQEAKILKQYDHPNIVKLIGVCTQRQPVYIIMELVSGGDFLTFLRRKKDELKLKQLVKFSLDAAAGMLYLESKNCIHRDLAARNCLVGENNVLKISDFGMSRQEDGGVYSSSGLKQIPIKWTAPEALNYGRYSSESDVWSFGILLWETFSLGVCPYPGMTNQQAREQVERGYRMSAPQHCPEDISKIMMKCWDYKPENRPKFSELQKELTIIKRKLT

On to `Clc1ccc(C2(c3ccc(-c4ncnc5[nH]cnc45)cc3)CCNCC2)cc1`, for which the inhibition in [1] was 4%.

Turning to `NCC1CN(c2ncnc3[nH]c4cnccc4c23)CCO1` (centres undefined), the inhibition in assay [2] was 53%.

Regarding `NCCc1ccc(-c2ncnc3[nH]cnc23)cc1`, the inhibition in [3] came to 72%.

Regarding `NCC1CCN(c2ncnc3[nH]ccc23)CC1`, the inhibition in [4] came to 1.5%; in assay [5], 3%.

On to `CNCc1ccc(-c2ncnc3[nH]cnc23)cc1`, for which the inhibition in [6] was 29.5%.

As to `COC(=O)c1cnc(Nc2cnc(C#N)cn2)cc1NCC1CCNCC1`, the inhibition in [7] was determined as 3%; in assay [8] it was 1.5%.

As for `c1cnc2[nH]ccc2c1`, the inhibition in assay [9] amounted to 80.5%.
